# Experimental data as given in patent US20240246964A1 (Arbutus Biopharma Corporation, priority 2021, published 2024).
# Assays:
# human PD-L1 = human PD-L1 (Homo sapiens (Human), UniProt Q9NZQ7); assay: T cell activation luciferase reporter cell culture system (T Cell Activation Assay); assay type: cell-based; conditions: luciferase reporter assay; PD-L1 aAPC/CHO-K1 cells with PD-1 effector Jurkat T cells
# [1] = molecular target: PD-L1 His protein / PD-1 Fc protein (Homo sapiens (Human), UniProt Q9NZQ7); assay: HTRF Assay (PD-1/PD-L1 interaction); assay type: binding; conditions: PD-L1 His 6 nM, PD-1 Fc 6 nM
# PD-L1 His protein / PD-1 Fc protein, sequence (Q9NZQ7 19-238): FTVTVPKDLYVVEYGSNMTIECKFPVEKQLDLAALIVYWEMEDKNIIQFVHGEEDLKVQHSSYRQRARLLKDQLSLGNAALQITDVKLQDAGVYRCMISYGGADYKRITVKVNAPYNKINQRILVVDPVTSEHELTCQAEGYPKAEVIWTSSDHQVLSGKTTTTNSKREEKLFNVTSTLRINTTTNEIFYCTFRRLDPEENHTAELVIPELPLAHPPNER
# human PD-L1, sequence (Q9NZQ7 19-290): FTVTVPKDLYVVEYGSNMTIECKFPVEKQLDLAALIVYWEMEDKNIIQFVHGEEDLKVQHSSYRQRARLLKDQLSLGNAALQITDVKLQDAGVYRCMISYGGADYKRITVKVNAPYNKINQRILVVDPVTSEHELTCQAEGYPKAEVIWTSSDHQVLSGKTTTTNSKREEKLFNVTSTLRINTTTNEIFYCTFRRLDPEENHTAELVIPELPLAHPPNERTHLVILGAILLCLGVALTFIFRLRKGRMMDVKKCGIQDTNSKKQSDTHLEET
Compound,EC50 (human PD-L1) [nM],IC50 [1] [nM]
"COc1cc(-c2nccc(-c3cccc(-c4ccc(CNC5CN(C(C)=O)C5)c(OC)n4)c3Cl)c2Cl)ccc1CNC1CN(C(C)=O)C1 [Example 300, 1-(3-(((6-(3-(2-(4-(((1-Acetylazetidin-3-yl)amino)methyl)-3-methoxyphenyl)-3-chloropyridin-4-yl)-2-chlorophenyl)-2-methoxypyridin-3-yl)methyl)amino)azetidin-1-yl)ethan-1-one]",282,0.87
"COc1cc(-c2nccc(-c3cccc(-c4cnc(CNC5CCN(C(C)=O)CC5)c(OC)c4)c3Cl)c2Cl)ccc1CNC1CCN(C(C)=O)CC1 [Example 565, 1-(4-(((5-(3-(2-(4-(((1-acetylpiperidin-4-yl)amino)methyl)-3-methoxyphenyl)-3-chloropyridin-4-yl)-2-chlorophenyl)-3-methoxypyridin-2-yl)methyl)amino)piperidin-1-yl)ethan-1-one]",1040,1.72
"COc1cc(-c2nccc(-c3cccc(-c4cc5c(cn4)C(=O)N(CCNC[C@@H]4CCC(=O)N4)C5)c3Cl)c2Cl)ccc1CNC[C@@H]1CCC(=O)N1 [Example 290, 6-(2-Chloro-3-(3-chloro-2-(3-methoxy-4-(((((S)-5-oxopyrrolidin-2-yl)methyl)amino)methyl)phenyl)pyridin-4-yl)phenyl)-2-(2-((((S)-5-oxopyrrolidin-2-yl)methyl)amino)ethyl)-1,2-dihydro-3H-pyrrolo[3,4-c]pyridin-3-one]",551,3.03
"COc1nc(-c2cccc(-c3ccnc(-c4cc5c(=O)n(C)c(CN[C@H]6C[C@](C)(O)C6)nn5c4)c3Cl)c2Cl)cc(Cl)c1CNC[C@@H]1CCC(=O)N1 [Compound 87, 6-(3-chloro-4-(2-chloro-3-(4-chloro-6-methoxy-5-(((((S)-5-oxopyrrolidin-2-yl)methyl)amino)methyl)pyridin-2-yl)phenyl)pyridin-2-yl)-2-((((1r,3r)-3-hydroxy-3-methylcyclobutyl)amino)methyl)-3-methylpyrrolo[2,1-f][1,2,4]triazin-4(3H)-one]",312,3
"COc1nc(-c2cccc(-c3ccnc(-c4cc(Cl)c5c(c4)CCN(CC4COC4)C5)c3Cl)c2Cl)ccc1CNC[C@@H]1CCC(=O)N1 [Example 307, (S)-5-((((6-(2-Chloro-3-(3-chloro-2-(8-chloro-2-(oxetan-3-ylmethyl)-1,2,3,4-tetrahydroisoquinolin-6-yl)pyridin-4-yl)phenyl)-2-methoxypyridin-3-yl)methyl)amino)methyl)pyrrolidin-2-one]",186,1.41
"COc1cc(-c2nccc(-c3cccc(-c4ccc(CN5CCN(C(C)=O)CC5)c(OC)n4)c3Cl)c2Cl)ccc1CN1CCN(C(C)=O)CC1 [Example 655, 1-(4-((6-(3-(2-(4-((4-Acetylpiperazin-1-yl)methyl)-3-methoxyphenyl)-3-chloropyridin-4-yl)-2-chlorophenyl)-2-methoxypyridin-3-yl)methyl)piperazin-1-yl)ethan-1-one]",≥ 10000,9.58
"COc1cc(-c2nccc(-c3cccc(-c4ccc(CNC[C@@H]5CCC(=O)N5)c(OC)n4)c3Cl)c2Cl)cc(F)c1CNC[C@@H]1CCO1 [Compound 181, (S)-5-((((6-(2-chloro-3-(3-chloro-2-(3-fluoro-5-methoxy-4-(((((S)-oxetan-2-yl)methyl)amino)methyl)phenyl)pyridine-4-yl)phenyl)-2-methoxypyridin-3-yl)methyl)amino)methyl)pyridine1335ne-2-one]",30.5,11.2
"COc1cc(-c2nccc(-c3cccc(NC(=O)c4ccc(CNC[C@H](C)O)cn4)c3C)c2Cl)ccc1CNC[C@H](C)O [Example 650, N-(3-(3-Chloro-2-(4-((((S)-2-hydroxypropyl)amino)methyl)-3-methoxyphenyl)pyridin-4-yl)-2-methylphenyl)-5-((((S)-2-hydroxypropyl)amino)methyl)picolinamide]",144,0.1
"COc1cc(-c2nccc(-c3cccc(-c4ccc(CN5CC6(CNC(=O)C6)C5)c(OC)n4)c3F)c2Cl)ccc1CN1CC2(CNC(=O)C2)C1 [Example 438, 2-(4-(3-chloro-4-(2-fluoro-3-(6-methoxy-5-((7-oxo-2,6-diazaspiro[3.4]octan-2-yl)methyl)pyridin-2-yl)phenyl)pyridin-2-yl)-2-methoxybenzyl)-2,6-diazaspiro[3.4]octan-7-one]",58.7,3.1
"COc1cc(-c2nccc(-c3cccc(-c4ccc(CNC5CCOCC5)c(OC)n4)c3Cl)c2Cl)ccc1CN1CC2(CCOCC2)C1 [Example 530, N-((6-(3-(2-(4-((7-Oxa-2-azaspiro[3.5]nonan-2-yl)methyl)-3-methoxyphenyl)-3-chloropyridin-4-yl)-2-chlorophenyl)-2-methoxypyridin-3-yl)methyl)tetrahydro-2H-pyran-4-amine]",39.5,2.51
"COc1cc(-c2nccc(-c3ccnc(-c4cc(F)c(CNC5CCN(C(C)=O)CC5)c(OC)c4)c3Cl)c2Cl)cc(F)c1CNC1CCN(C(C)=O)CC1 [Compound 313, 1,1′-(((((3,3′-Dichloro-[4,4′-bipyridine]-2,2′-diyl)bis(2-fluoro-6-methoxy-4,1-phenylene))bis(methylene))bis(azanediyl))bis(piperidine-4,1-diyl))bis(ethan-1-one)]",97.3,4.6
"COc1nc(-c2cccc(-c3ccnc(-c4cc(OC)c5nc(CNC[C@@H](C)O)nn5c4)c3Cl)c2Cl)ccc1CNC1CCN(C(C)=O)CC1 [Example 638, (R)-1-(4-(((6-(2-Chloro-3-(3-chloro-2-(2-(((2-hydroxypropyl)amino)methyl)-8-methoxy-[1,2,4]triazolo[1,5-a]pyridin-6-yl)pyridin-4-yl)phenyl)-2-methoxypyridin-3-yl)methyl)amino)piperidin-1-yl)ethan-1-one]",94.9,0.2
"COc1nc(-c2cccc(-c3ccnc(-c4ccc(CNC[C@@H]5CCC(=O)N5)c(OC)n4)c3Cl)c2Cl)ccc1CNC[C@@H]1CCC(=O)N1 [Compound 630, (S)-5-((((6-(2-Chloro-3-(3-chloro-6′-methoxy-5′-(((((S)-5-oxopyrrolidin-2-yl)methyl)amino)methyl)-[2,2′-bipyridin]-4-yl)phenyl)-2-methoxypyridin-3-yl)methyl)amino)methyl)pyrrolidin-2-one]",49.6,0.17
"COc1cc(-c2nccc(-c3cccc(-c4ccc5c(CN6CC7(CNC(=O)C7)C6)cn(C)c5n4)c3Cl)c2Cl)ccc1CNC[C@@H]1CCC(=O)N1 [Compound 219, (S)-2-((6-(2-chloro-3-(3-chloro-2-(3-methoxy-4-((((5-oxopyrrolidin-2-yl)methyl)amino)methyl)phenyl)pyridin-4-yl)phenyl)-1-methyl-1H-pyrrolo[2,3-b]pyridin-3-yl)methyl)-2,6-diazaspiro[3.4]octan-7-one]",22.2,2.73
"CNCc1cn(C)c2nc(-c3cccc(-c4ccnc(-c5ccc(CNC[C@@H]6CCC(=O)N6)c(OC)c5)c4Cl)c3Cl)ccc12 [Compound 94, (S)-5-(((4-(3-chloro-4-(2-chloro-3-(1-methyl-3-((methylamino)methyl)-1H-pyrrolo[2,3-b]pyridin-6-yl)phenyl)pyridin-2-yl)-2-methoxybenzyl)amino)methyl)pyrrolidin-2-one]",47.5,0.5
"CNCc1ccc(-c2cccc(-c3ccnc(-c4ccc(CNCC56CC(C(=O)O)(C5)C6)c(OC)c4)c3Cl)c2Cl)nc1OC [Compound 228, 3-(((4-(3-chloro-4-(2-chloro-3-(6-methoxy-5-((methylamino)methyl)pyridin-2-yl)phenyl)pyridin-2-yl)-2-methoxybenzyl)amino)methyl)bicyclo[1.1.1]pentane-1-carboxylic acid]",75.5,0.23
"CNCc1ccc(-c2cccc(-c3ccnc(-c4cc(CN5CC(CC(=O)O)C5)cc(OC)c4)c3Cl)c2Cl)nc1OC [Compound 172, 2-(1-(3-(3-chloro-4-(2-chloro-3-(6-methoxy-5-((methylamino)methyl)pyridine-2-yl)phenyl)pyridine-2-yl)-5-methoxybenzyl)pyridine1333-3-yl)acetic acid]",≥ 10000,3.32
"COc1nc(-c2cccc(-c3ccnc(-c4cc(OC)c5nc(CNC6CCN(C(C)=O)CC6)nn5c4)c3Cl)c2Cl)ccc1CNC(C)C [Compound 765, 1-(4-(((6-(3-Chloro-4-(2-chloro-3-(5-((isopropylamino)methyl)-6-methoxypyridin-2-yl)phenyl)pyridin-2-yl)-8-methoxy-[1,2,4]triazolo[1,5-a]pyridin-2-yl)methyl)amino)piperidin-1-yl)ethan-1-one]",1280,0.28
"COc1cc(-c2nccc(-c3cccc(-c4ccc(CNC5CCOCC5)c(OC)n4)c3Cl)c2Cl)ccc1CN(C)C1CCN(C(C)=O)CC1 [Example 442, 1-(4-((4-(3-chloro-4-(2-chloro-3-(6-methoxy-5-(((tetrahydro-2H-pyran-4-yl)amino)methyl)pyridin-2-yl)phenyl)pyridin-2-yl)-2-methoxybenzyl)(methyl)amino)piperidin-1-yl)ethan-1-one]",43.3,5.94
"COc1nc(-c2cccc(-c3ccnc(-c4ccc(CN5CC6(CNC(=O)C6)C5)c(OC)n4)c3Cl)c2Cl)ccc1CN1CC2(CNC(=O)C2)C1 [Compound 628, 2-((3′-Chloro-4′-(2-chloro-3-(6-methoxy-5-((7-oxo-2,6-diazaspiro[3.4]octan-2-yl)methyl)pyridin-2-yl)phenyl)-6-methoxy-[2,2′-bipyridin]-5-yl)methyl)-2,6-diazaspiro[3.4]octan-7-one]",27.1,0.28
"COc1cc(-c2ncnc(-c3cccc(-c4ccc(CNC[C@@H]5CCC(=O)N5)c(OC)n4)c3Cl)c2OC)ccc1CNC[C@@H]1CCC(=O)N1 [Example 716, (S)-5-((((6-(2-chloro-3-(5-methoxy-6-(3-methoxy-4-(((((S)-5-oxopyrrolidin-2-yl)methyl)amino)methyl)phenyl)pyrimidin-4-yl)phenyl)-2-methoxypyridin-3-yl)methyl)amino)methyl)pyrrolidin-2-one]",940,0.6
